The supplement of paper PMC10307832

How the values were obtained:
Test in all cases: relative viability (nuclei count vs DMSO), 5 days (fraction); higher = more cells survive
[1] = compound: COc1cc2nc(N3CCCN(C)CC3)nc(NC3CCN(Cc4ccccc4)CC3)c2cc1OC + COc1cc2c(Oc3ccc(NC(=O)C4(C(=O)Nc5ccc(F)cc5)CC4)cc3F)ccnc2cc1OCCCN1CCOCC1 [Foretinib] (partner 0.25 µM)
In short: (§1)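 Relative viability is defined as nuclei in treated wells over nuclei in vehicle wells. Duplicate plates were run and medians reported. Lung cancer cell lines in 1536-well plates were dosed by pin tool one day after seeding, with one drug or with a fixed anchor-drug dose plus five library-drug doses (not always all listed) in √10 steps, and nuclei were counted after 5 days.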

[2] = compound: COc1cc2nc(N3CCCN(C)CC3)nc(NC3CCN(Cc4ccccc4)CC3)c2cc1OC + Nc1ncn([C@H]2C[C@H](O)[C@@H](CO)O2)c(=O)n1 [Decitabine] (partner 2 µM)
In short: as §1

[3] = compound: COc1cc2nc(N3CCCN(C)CC3)nc(NC3CCN(Cc4ccccc4)CC3)c2cc1OC + O=C(CCCCCCC(=O)Nc1ccccc1)NO [Vorinostat] (partner 1 µM)
In short: as §1

[4] = compound: Cc1cc([C@@H](C)Nc2ccccc2C(=O)O)c2nc(N3CCOCC3)cc(=O)n2c1 [AZD6482] + CC1(C)CCC(c2ccc(Cl)cc2)=C(CN2CCN(c3ccc(C(=O)NS(=O)(=O)c4ccc(N[C@H](CCN5CCOCC5)CSc5ccccc5)c(S(=O)(=O)C(F)(F)F)c4)cc3)CC2)C1 [Navitoclax] (partner 0.5 µM)
In short: as §1

| Cell Line | relative viability ([1]; first compound 0.2 µM) | relative viability ([1]; first compound 0.6325 µM) | relative viability ([1]; first compound 2 µM) | relative viability ([1]; first compound 6.325 µM) | relative viability ([2]; first compound 0.2 µM) | relative viability ([2]; first compound 0.6325 µM) | relative viability ([2]; first compound 2 µM) | relative viability ([2]; first compound 6.325 µM) | relative viability ([3]; first compound 0.2 µM) | relative viability ([3]; first compound 0.6325 µM) | relative viability ([3]; first compound 2 µM) | relative viability ([3]; first compound 6.325 µM) | relative viability ([4]; first compound 0.08 µM) | relative viability ([4]; first compound 0.253 µM) | relative viability ([4]; first compound 0.8 µM) | relative viability ([4]; first compound 2.53 µM) | relative viability ([4]; first compound 8 µM) |
| --- | --- | --- | --- | --- | --- | --- | --- | --- | --- | --- | --- | --- | --- | --- | --- | --- | --- |
| 201T | 1.13 | 1.08 | 1.09 | 1.11 | 0.889 | 0.812 | 0.859 | 0.799 | 0.968 | 0.983 | 0.952 | 0.939 | 1.22 | 1.17 | 1.19 | 1.12 | 1.17 |
| A549 | 0.951 | 0.966 | 0.997 | 0.763 | 0.227 | 0.238 | 0.263 |  |  |  |  |  | 1.07 | 1.25 | 1.06 | 0.607 | 0.961 |
| A-427 | 0.918 | 0.977 | 1.13 | 1.09 | 0.602 | 0.551 | 0.589 | 0.531 | 0.865 | 0.827 | 0.882 | 0.851 | 0.861 | 0.903 | 0.916 | 0.757 | 0.947 |
| ABC-1 | 1.04 | 1.35 | 1.32 | 0.996 | 0.969 | 1.09 | 0.929 | 1.19 | 0.959 | 1.23 | 1.13 | 0.917 |  |  |  |  |  |
| BEN | 0.908 | 0.786 | 0.91 | 0.972 | 0.765 | 0.743 | 0.914 | 0.699 | 0.608 | 0.54 | 0.636 | 0.552 | 0.058 | 0.0744 | 0.0638 | 0.0645 | 0.178 |
| CAL-12T | 1.01 | 1.15 | 1.38 | 0.941 |  |  |  |  | 0.558 | 0.626 | 0.925 | 0.767 | 1.13 | 1.29 | 1.29 | 0.648 | 1.23 |
| COR-L23 | 1.02 | 0.95 | 0.965 | 0.996 | 0.466 | 0.477 | 0.527 | 0.471 | 0.536 | 0.406 | 0.561 | 0.286 | 0.711 | 1.02 | 1.23 | 0.756 | 0.857 |
| COR-L 105 | 1.06 | 1.27 | 1.13 | 0.921 | 0.687 | 0.685 | 0.648 | 0.492 | 0.805 | 1.04 | 0.728 | 0.595 | 0.78 | 0.648 | 0.747 | 0.521 | 0.633 |
| Calu-6 | 0.867 | 0.865 | 0.983 | 0.903 |  |  |  |  |  |  |  |  | 0.662 | 0.699 | 0.754 | 0.57 | 0.602 |
| ChaGo-K-1 | 1 | 0.929 | 0.941 | 0.907 | 0.553 | 0.506 | 0.49 | 0.504 | 0.784 | 0.749 | 0.779 | 0.717 | 1.09 |  | 1.18 | 0.986 | 1.1 |
| EBC-1 | 0.1 | 0.117 | 0.114 | 0.107 |  |  |  |  |  |  |  |  | 0.273 | 0.318 | 0.322 | 0.191 | 0.241 |
| EKVX | 0.754 | 0.814 | 0.986 | 0.794 | 0.329 | 0.318 | 0.343 | 0.27 | 0.703 | 0.721 | 0.541 | 0.722 | 0.817 | 0.868 | 0.786 | 0.535 | 0.57 |
| EMC-BAC-2 | 0.956 | 0.973 | 1.05 | 1.01 | 0.997 | 0.968 | 0.882 | 0.915 | 0.431 | 0.427 | 0.448 | 0.508 | 1.09 | 1.08 | 1.12 | 0.916 | 0.971 |
| EPLC-272H | 0.783 | 0.723 | 0.847 | 0.686 | 0.392 | 0.387 | 0.341 | 0.38 | 0.423 | 0.4 | 0.38 | 0.335 | 0.943 |  | 0.994 | 0.896 | 0.775 |
| H3255 | 0.857 | 0.812 | 0.981 | 1.05 | 0.576 | 0.626 | 0.601 | 0.588 | 0.77 | 0.796 | 0.858 | 0.772 | 0.501 | 0.523 | 0.352 | 0.314 | 0.243 |
| HARA | 0.973 | 0.9 | 0.92 | 0.92 | 0.548 | 0.556 | 0.697 | 0.442 | 0.584 | 0.63 | 0.515 | 0.51 | 1.11 | 1.16 | 1.13 |  | 1.16 |
| HCC-15 | 1.1 | 1 | 1.06 | 0.853 | 0.688 | 0.875 | 0.649 | 0.495 | 0.85 | 0.884 | 0.909 | 0.81 | 0.666 | 0.616 | 0.626 | 0.515 | 0.523 |
| HCC-44 |  |  |  |  | 1.01 | 0.855 | 0.936 | 0.944 | 1.11 | 1.12 | 1.17 | 1.12 | 0.758 | 0.964 | 0.965 | 0.874 | 0.459 |
| HCC-78 | 0.57 | 0.578 | 0.58 | 0.533 | 0.642 | 0.683 | 0.729 | 0.712 | 0.495 | 0.442 | 0.462 | 0.429 | 0.663 | 0.438 | 0.433 | 0.203 | 0.306 |
| HCC-366 | 0.916 | 0.966 | 0.906 | 0.945 | 0.334 | 0.292 | 0.358 | 0.309 | 0.332 | 0.33 | 0.254 | 0.284 | 0.937 | 1.01 | 1.11 | 0.901 | 0.908 |
| HCC-827 | 1.06 | 1.12 | 1.05 | 1.02 | 0.172 | 0.315 | 0.221 | 0.326 | 0.899 | 0.786 | 0.784 | 0.826 | 0.938 | 1.01 | 1.07 | 0.899 | 0.898 |
